Assays:
[1] = molecular target: T1, EZH2 Y641F mutant (PRC2 enzyme) (Homo sapiens, UniProt Q15910, Y641F); test: PRC2 enzyme assay on peptide substrate, EZH2 Y641F mutant; type: biochemical; details: Y641F mutant PRC2 enzyme 4 nM, H3K27me2 peptide, 3H-SAM Flashplate
T1 construct: made in house; host or cells: Spodoptera frugiperda (sf9) cells, baculovirus
Text: (§1) General Materials. S-adenosylmethionine (SAM), S-adenosylhomocyteine (SAH), bicine, KCl, Tween20, dimethylsulfoxide (DMSO) and bovine skin gelatin (BSG) were purchased from Sigma-Aldrich at the highest level of purity possible. Dithiothreitol (DTT) was purchased from EMD. ^3H-SAM was purchased from American Radiolabeled Chemicals with a specific activity of 80 Ci/mmol. 384-well streptavidin Flashplates were purchased from PerkinElmer.
(§2) Peptides representative of human histone H3 residues 21-44 containing either an unmodified lysine 27 (H3K27me0) or dimethylated lysine 27 (H3K27me2) were synthesized with a C-terminal G(K-biotin) linker-affinity tag motif and a C-terminal amide cap by 21st Century Biochemicals. […] The sequences are listed below.
(§3) Human PRC2 enzymes were purified as 4-component enzyme complexes co-expressed in Spodoptera frugiperda (sf9) cells using a baculovirus expression system. […] The EED subunit contained an N-terminal FLAG tag that was used to purify the entire 4-component complex from sf9 cell lysates.
(§4) The assays were all performed in a buffer consisting of 20 mM bicine (pH=7.6), 0.5 mM DTT, 0.005% BSG and 0.002% Tween20, prepared on the day of use. Compounds in 100% DMSO (1 μL) were spotted into polypropylene 384-well V-bottom plates (Greiner) using a Platemate 2×3 outfitted with a 384-channel pipet head (Thermo). DMSO (1 μL) was added to columns 11, 12, 23, 24, rows A-H for the maximum signal control, and SAH, a known product and inhibitor of PRC2 (1 μL) was added to columns 11,12, 23, 24, rows I-P for the minimum signal control. A cocktail (40 μL) containing the wild-type PRC2 enzyme and H3K27me0 peptide or any of the Y641 mutant enzymes and H3K27me2 peptide was added by Multidrop Combi (Thermo). The compounds were allowed to incubate with PRC2 for 30 min at 25° C., then a cocktail (10 μL) containing a mixture of non-radioactive and ^3H-SAM was added to initiate the reaction (final volume=51 μL). In all cases, the final concentrations were as follows: wild-type or mutant PRC2 enzyme was 4 nM, SAH in the minimum signal control wells was 1 mM and the DMSO concentration was 1%. The assays were stopped by the addition of non-radioactive SAM (10 μL) to a final concentration of 600 μM, which dilutes the ^3H-SAM to a level where its incorporation into the peptide substrate is no longer detectable. 50 μL of the reaction in the 384-well polypropylene plate was then transferred to a 384-well Flashplate and the biotinylated peptides were allowed to bind to the streptavidin surface for at least 1 h before being washed three times with 0.1% Tween20 in a Biotek ELx405 plate washer. The plates were then read in a PerkinElmer TopCount platereader to measure the quantity of ^3H-labeled peptide bound to the Flashplate surface, measured as disintegrations per minute (dpm) or alternatively, referred to as counts per minute (cpm).
(§5) Where dpm=disintegrations per minute, cmpd=signal in assay well, and min and max are the respective minimum and maximum signal controls.
(§6) Where top and bottom are the normally allowed to float, but may be fixed at 100 or 0 respectively in a 3-parameter fit. The Hill Coefficient normally allowed to float but may also be fixed at 1 in a 3-parameter fit. Y is the % inhibition and X is the compound concentration.

[2] = tested on: WSU-DLCL2 cells; test: Cell Proliferation Analysis, WSU-DLCL2; type: cell-based; details: Homo sapiens, WSUDLCL2, 144 h, 6 days, Cell Titer Glo
Text: WSU-DLCL2 suspension cells were purchased from DSMZ (German Collection of Microorganisms and Cell Cultures, Braunschweig, Germany). RPMI/Glutamax Medium, Penicillin-Streptomycin, Heat Inactivated Fetal Bovine Serum were purchased from Life Technologies, Grand Island, N.Y., USA. V-bottom polypropylene 384-well plates were purchased from Greiner Bio-One, Monroe, N.C., USA. Cell culture 384-well white opaque plates were purchased from Perkin Elmer, Waltham, Mass., USA. Cell-Titer Glo® was purchased from Promega Corporation, Madison, Wis., USA. SpectraMax M5 plate reader was purchased from Molecular Devices LLC, Sunnyvale, Calif., USA.
WSU-DLCL2 suspension cells were maintained in growth medium (RPMI 1640 supplemented with 10% v/v heat inactivated fetal bovine serum and cultured at 37° C. under 5% CO2. Under assay conditions, cells were incubated in Assay Medium (RPMI 1640 supplemented with 20% v/v heat inactivated fetal bovine serum and 100 units/mL penicillin-streptomycin) at 37° C. under 5% CO2.
For the assessment of the effect of compounds on the proliferation of the WSU-DLCL2 cell line, exponentially growing cells were plated in 384-well white opaque plates at a density of 1250 cell/ml in a final volume of 50 μl of assay medium. A compound source plate was prepared by performing triplicate nine-point 3-fold serial dilutions in DMSO, beginning at 10 mM (final top concentration of compound in the assay was 20 μM and the DMSO was 0.2%). A 100 nL aliquot from the compound stock plate was added to its respective well in the cell plate. […] After addition of compounds, assay plates were incubated for 6 days at 37° C., 5% CO2, relative humidity >90% for 6 days. Cell viability was measured by quantization of ATP present in the cell cultures, adding 35 μl of Cell Titer Glo® reagent to the cell plates. Luminescence was read in the SpectraMax M5. The concentration inhibiting cell viability by 50% was determined using a 4-parametric fit of the normalized dose response curves.

[3] = molecular target: T2, wild-type EZH2 (PRC2 enzyme) (Homo sapiens, UniProt Q15910); test: PRC2 enzyme assay on peptide substrate, wild-type EZH2; type: biochemical; details: wild-type PRC2 enzyme 4 nM, H3K27me0 peptide, 3H-SAM Flashplate; read-out: WT EZH2 IC50
T2 construct: made in house; host or cells: Spodoptera frugiperda (sf9) cells, baculovirus
T2 sequence (Q15910 whole entry): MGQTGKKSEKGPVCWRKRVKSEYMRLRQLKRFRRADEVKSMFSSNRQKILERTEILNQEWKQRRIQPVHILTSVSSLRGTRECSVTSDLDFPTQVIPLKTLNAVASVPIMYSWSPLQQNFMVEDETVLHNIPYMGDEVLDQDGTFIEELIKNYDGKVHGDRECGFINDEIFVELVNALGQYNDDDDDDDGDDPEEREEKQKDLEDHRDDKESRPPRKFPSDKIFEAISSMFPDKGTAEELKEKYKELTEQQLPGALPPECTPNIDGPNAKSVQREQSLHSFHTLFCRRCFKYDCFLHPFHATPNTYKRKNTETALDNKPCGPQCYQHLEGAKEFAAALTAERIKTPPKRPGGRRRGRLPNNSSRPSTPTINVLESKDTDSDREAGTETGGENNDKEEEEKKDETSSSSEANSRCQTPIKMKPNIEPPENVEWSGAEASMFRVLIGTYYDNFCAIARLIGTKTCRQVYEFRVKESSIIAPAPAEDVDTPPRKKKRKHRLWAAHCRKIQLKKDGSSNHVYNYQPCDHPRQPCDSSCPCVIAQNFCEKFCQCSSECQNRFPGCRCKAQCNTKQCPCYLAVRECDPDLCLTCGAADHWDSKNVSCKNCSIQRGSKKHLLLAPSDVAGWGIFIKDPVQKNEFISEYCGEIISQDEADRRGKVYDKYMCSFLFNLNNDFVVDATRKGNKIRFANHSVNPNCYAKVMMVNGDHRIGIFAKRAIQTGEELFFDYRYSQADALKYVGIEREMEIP
T2 sequence (O75530 whole entry partner): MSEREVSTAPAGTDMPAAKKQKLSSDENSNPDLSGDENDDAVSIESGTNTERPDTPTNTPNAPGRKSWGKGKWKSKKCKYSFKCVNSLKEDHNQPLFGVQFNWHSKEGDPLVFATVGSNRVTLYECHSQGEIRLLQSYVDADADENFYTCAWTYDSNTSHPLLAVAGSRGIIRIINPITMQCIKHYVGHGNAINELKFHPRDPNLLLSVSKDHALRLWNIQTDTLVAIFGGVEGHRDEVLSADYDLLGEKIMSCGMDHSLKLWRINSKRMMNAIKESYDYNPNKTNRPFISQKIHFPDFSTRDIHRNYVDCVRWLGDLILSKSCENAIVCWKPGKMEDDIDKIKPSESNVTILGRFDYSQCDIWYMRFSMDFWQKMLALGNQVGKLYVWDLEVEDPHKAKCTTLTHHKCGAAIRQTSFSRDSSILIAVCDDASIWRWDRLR
T2 sequence (Q15022 whole entry partner): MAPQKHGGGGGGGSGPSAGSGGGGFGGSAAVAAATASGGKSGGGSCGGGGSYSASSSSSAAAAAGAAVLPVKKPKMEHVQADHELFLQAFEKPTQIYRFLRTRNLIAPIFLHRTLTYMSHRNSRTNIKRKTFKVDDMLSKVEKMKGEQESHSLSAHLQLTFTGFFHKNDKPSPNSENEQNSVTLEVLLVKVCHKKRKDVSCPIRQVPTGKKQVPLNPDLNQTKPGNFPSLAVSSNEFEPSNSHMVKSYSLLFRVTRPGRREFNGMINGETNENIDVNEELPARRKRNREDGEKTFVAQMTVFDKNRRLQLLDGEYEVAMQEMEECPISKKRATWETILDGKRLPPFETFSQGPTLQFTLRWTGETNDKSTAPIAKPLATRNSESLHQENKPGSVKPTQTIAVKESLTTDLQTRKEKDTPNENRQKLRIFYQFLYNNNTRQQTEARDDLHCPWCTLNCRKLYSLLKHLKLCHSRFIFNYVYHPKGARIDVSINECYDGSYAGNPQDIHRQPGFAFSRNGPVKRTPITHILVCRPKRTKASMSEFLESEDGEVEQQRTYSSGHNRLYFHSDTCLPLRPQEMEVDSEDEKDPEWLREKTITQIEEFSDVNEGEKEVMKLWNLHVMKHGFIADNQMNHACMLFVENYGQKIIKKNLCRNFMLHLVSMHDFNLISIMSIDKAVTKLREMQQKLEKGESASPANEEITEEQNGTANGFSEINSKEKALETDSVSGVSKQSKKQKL
T2 sequence (Q09028 whole entry partner): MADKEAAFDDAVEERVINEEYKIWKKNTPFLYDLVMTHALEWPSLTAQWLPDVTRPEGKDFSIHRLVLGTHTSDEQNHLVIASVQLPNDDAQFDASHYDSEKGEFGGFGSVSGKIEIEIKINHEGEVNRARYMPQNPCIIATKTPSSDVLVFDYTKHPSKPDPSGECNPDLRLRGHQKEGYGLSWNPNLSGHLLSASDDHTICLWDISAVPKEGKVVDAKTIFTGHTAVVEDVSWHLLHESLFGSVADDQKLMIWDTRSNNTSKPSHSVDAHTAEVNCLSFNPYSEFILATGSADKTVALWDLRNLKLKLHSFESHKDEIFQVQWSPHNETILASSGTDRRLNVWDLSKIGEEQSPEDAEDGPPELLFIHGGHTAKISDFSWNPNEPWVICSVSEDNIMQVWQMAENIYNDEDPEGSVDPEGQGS
Text: as §1, §2, §3, §4, §5, §6

T1 sequence (Q15910 whole entry Y641F): as the sequence (Q15910 whole entry) above, with Y641F counted along it
T1 sequence (O75530 whole entry partner): as the sequence (O75530 whole entry partner) above
T1 sequence (Q15022 whole entry partner): as the sequence (Q15022 whole entry partner) above
T1 sequence (Q09028 whole entry partner): as the sequence (Q09028 whole entry partner) above

IC50 [1] [nM]	IC50 [3] [nM]	Structure (SMILES)	IC50 [2] [nM]
40	22 to 37	CCN(c1cc(Cl)cc(C(=O)NCc2c(C)[nH]c(C)cc2=O)c1C)[C@H]1CC[C@H](N(C)C)CC1 [Compound 1, 5-chloro-N-((2,6-dimethyl-4-oxo-1,4-dihydropyridin-3-yl)methyl)-3-(((trans)-4-(dimethylamino)cyclohexyl)(ethyl)amino)-2-methylbenzamide]	17100
> 50000	> 50000	CCN(c1cc(Cl)cc(C(=O)NCc2c(C)n(C)c(C)cc2=O)c1C)[C@H]1CC[C@H](N(C)C)CC1 [Compound 86]	> 20000
37400	35400	CCn1c(C)cc(=O)c(CNC(=O)c2cc(Cl)cc(N(CC)[C@H]3CC[C@H](N(C)C)CC3)c2C)c1C [Compound 87]	3000
229	270	CCN(c1cc(-c2cnn(C)c2)cc(C(=O)NCc2c(Cl)[nH]c(C)cc2=O)c1C)[C@H]1CC[C@H](N(C)C)CC1 [Compound 89]	11500
49	140	CCN(c1cc(-c2cnc(C)cn2)cc(C(=O)NCc2c(Cl)[nH]c(C)cc2=O)c1C)[C@H]1CC[C@H](N(C)C)CC1 [Compound 91]	5400

Continued, compound first:

Structure (SMILES)	IC50 [1] [nM]	IC50 [3] [nM]	IC50 [2] [nM]
CCN(c1cc(-c2ccc(COC)nc2)cc(C(=O)NCc2c(Cl)[nH]c(C)cc2=O)c1C)[C@H]1CC[C@H](N(C)C)CC1 [Compound 88]	46	40	5100
CCN(c1cc(-c2ccc(C)nc2)cc(C(=O)NCc2c(Cl)[nH]c(C)cc2=O)c1C)[C@H]1CC[C@H](N(C)C)CC1 [Compound 90]	40	50	5300
CCN(c1cc(-c2ccc(OCCOC)cc2)cc(C(=O)NCc2c(Cl)[nH]c(C)cc2=O)c1C)[C@H]1CC[C@H](N(C)C)CC1 [Compound 92]	23	38	4400
CCN(c1cc(-c2ccc(OCCOC)cc2)cc(C(=O)NCc2c(C)[nH]c(C)cc2=O)c1C)[C@H]1CC[C@H](N(C)C)CC1 [Compound 93]	5	5	1200
CCCN(c1cc(-c2ccc(OCCOC)cc2)cc(C(=O)NCc2c(C)[nH]c(C)cc2=O)c1C)[C@H]1CC[C@H](N(C)C)CC1 [Compound 94]	7	25	2900
CCN(c1cc(-c2ccc(OCCOC)cc2)cc(C(=O)NCc2c(C)[nH]c(C)cc2=O)c1C)[C@H]1CC[C@H](N(C)CCOC)CC1 [Compound 100]	18	27	4200
